Experimental data as given in article PMC8881069, “Thio- and selenosemicarbazones as antiprotozoal agents against Trypanosoma cruzi and Trichomonas vaginalis” (Journal of Enzyme Inhibition and Medicinal Chemistry, 2022).

Columns and labels:
[1] = test system: Trypanosoma cruzi Y (DTU TcII) epimastigotes; test: Y strain epimastigote susceptibility assay (resazurin); type: cell-based; details: T. cruzi Y strain epimastigotes, 48 h, mean ± SD, n = 3
J774 cells = test: Unspecific cytotoxicity assay on J774 macrophages (resazurin); type: cell-based, mouse; details: mean ± SD, n = 3; for CC50 at 48 h: mouse
[2] = test system: Trypanosoma cruzi CL-B5 amastigotes; test: CL-B5 lacZ intracellular amastigote susceptibility assay (CPRG); type: cell-based; details: intracellular amastigotes in L929 cells, 7 days, mean ± SD, n = 3
L929 cells = test: Unspecific cytotoxicity assay on L929 fibroblasts (resazurin); type: cell-based; details: mean ± SD, n = 3; for CC50 at 72 h: mouse; for CC50: 72 h
[3] = test system: Trypanosoma cruzi CL-B5 (DTU TcVI) epimastigotes; test: CL-B5 lacZ epimastigote susceptibility assay (CPRG); type: cell-based; details: T. cruzi CL-B5 lacZ epimastigotes, 72 h, mean ± SD, n = 3
[4] = test system: hydrogenosome membrane potential of T. vaginalis; test: Hydrogenosomal membrane potential assay (JC-1); details: Figure 3; 4 h; 51 and 63 at 100 µM, MTZ 24 µM, CCCP 50 µM
Trichomonas vaginalis = test: Trichomonacidal in vitro assay (resazurin); type: cell-based; details: isolate JH31A#4, 24 h, brackets: 95% confidence interval
Vero cells = test: Unspecific cytotoxicity assay in Vero cells (resazurin); type: cell-based, African green monkey; details: for CC50 at 24 h: African green monkey; for CC50 at 24 h / CC50: Vero cells, brackets: 95% confidence interval, 24 h; for unspecific cytotoxicity towards Vero cells (in words): highest concentration evaluated (300 µM)
[5] = Vero CCL-81 cells (kidney epithelial cells)

SMILES | CC50 at 72 h (L929 cells) | IC50 ([3]; Trypanosoma cruzi) | IC50 (Trichomonas vaginalis; Trichomonas vaginalis, 24 h) | also measured
O=C(Cn1ccnc1[N+](=O)[O-])NCc1ccccc1 [Benznidazole, benznidazole, reference compound] | > 256 µM | 25.3 ± 1.63 µM |  | IC50 ([1]; Trypanosoma cruzi): 22.7 ± 1.82 µM; CC50 at 48 h (J774 cells): > 256 µM; IC50 ([2]; Trypanosoma cruzi, 168 h): 0.47 ± 0.09 µM
N#CC(C#N)=NNc1cccc(Cl)c1 [CCCP, m-chlorocarbonylcyanide phenylhydrazone, reference compound] |  |  |  | JC-1 fluorescence distribution in trophozoites (fluorescence microscopy) [4]: provokes a disturbance in the hydrogenosome membrane potential
COc1ccc(NC(=S)NN)cc1 [Compound 23] | > 256 µM | 53.5 ± 13 µM | 256 µM | IC50 ([1]; Trypanosoma cruzi): 59.9 ± 10.4 µM; CC50 at 48 h (J774 cells): > 256 µM
NNC(=S)Nc1ccc(F)cc1 [Compound 24] | > 256 µM | 58.8 ± 8.77 µM | 200 µM | IC50 ([1]; Trypanosoma cruzi): 97.3 ± 3.45 µM; CC50 at 48 h (J774 cells): > 256 µM
NNC(=S)Nc1ccc(Cl)cc1 [Compound 25] | 67.7 ± 3.16 µM | 44.2 ± 13.6 µM | 49.2 µM | CC50 at 24 h (Vero cells; [5]): > 300 µM
NNC(=S)Nc1ccc(I)cc1 [Compound 27] | 51 ± 8.88 µM | 49.8 ± 14.2 µM | 75.7 µM | 
NNC(=S)Nc1ccccc1[N+](=O)[O-] [Compound 28] | 210 ± 15.3 µM | 44.1 ± 5.38 µM | > 300 µM | 
NNC(=S)Nc1cccc([N+](=O)[O-])c1 [Compound 29] | 206 ± 7.25 µM | 79.9 ± 15.4 µM | 19.1 µM | CC50 at 24 h (Vero cells; [5]): > 300 µM
NNC(=S)Nc1ccc([N+](=O)[O-])cc1 [Compound 30] | 23.6 ± 2.84 µM | 72.5 ± 1.23 µM | 106 µM | 
NNC(=S)Nc1cccc2ccccc12 [Compound 31] |  |  |  | IC50 [1]: 33.6 ± 5.72 µM; CC50 (J774 cells; 48 h): > 256 µM; IC50 [2]: 39.7 ± 9.91 µM; IC50 (Trichomonas vaginalis): 30.2 µM; CC50 (Vero cells): > 300 µM; CC50 (L929 cells): > 256 µM; IC50 [3]: 28.7 ± 4.61 µM
Oc1ccc(/C=N/NC(=S)Nc2ccccc2)cc1 [Compound 36] | 46.29 ± 0.15 µM | 70.9 ± 11 µM | 74 µM | 
COc1ccc(/C=N/NC(=S)Nc2ccccc2)cc1 [Compound 37] | > 256 µM |  | 167 µM | IC50 ([1]; Trypanosoma cruzi): 85.1 ± 17.2 µM; CC50 at 48 h (J774 cells): > 256 µM
Oc1ccc(/C=N/NC(=S)Nc2ccccc2)cc1O [Compound 38] | 45.2 ± 0.58 µM | 15.3 ± 2.22 µM | 88.6 µM | 
Cc1ccc(NC(=S)N/N=C/c2ccc(O)cc2)cc1 [Compound 39] | 61 ± 3.72 µM | 39.6 ± 7.08 µM | 66.1 µM | 
COc1ccc(/C=N/NC(=S)Nc2ccc(C)cc2)cc1 [Compound 40] | > 256 µM | > 256 µM | 226 µM | 
Cc1ccc(NC(=S)N/N=C/c2ccc(O)c(O)c2)cc1 [Compound 41] | 20 ± 1.87 µM | 119 ± 7.68 µM | 80.6 µM | 
COc1ccc(NC(=S)N/N=C/c2ccc(O)cc2)cc1 [Compound 42] | 43.3 ± 16.6 µM | 49.2 ± 9.97 µM | 64.8 µM | 
COc1ccc(/C=N/NC(=S)Nc2ccc(OC)cc2)cc1 [Compound 43] | > 256 µM | 26.8 ± 2.68 µM | 258 µM | IC50 ([1]; Trypanosoma cruzi): 55.6 ± 16.3 µM; CC50 at 48 h (J774 cells): > 256 µM; IC50 ([2]; Trypanosoma cruzi, 168 h): 39 ± 14.3 µM
COc1ccc(/C=N/NC(=S)Nc2ccc(F)cc2)cc1 [Compound 44] | > 256 µM | > 256 µM | > 300 µM | 
Oc1ccc(/C=N/NC(=S)Nc2ccc(F)cc2)cc1O [Compound 45] | 30.5 ± 3.93 µM | 97.4 ± 5.33 µM | 226 µM | 
COc1ccc(/C=N/NC(=S)Nc2ccc(Cl)cc2)cc1 [Compound 46] | 49.7 ± 3.76 µM | 30.5 ± 4.1 µM | 32.3 µM | CC50 at 24 h (Vero cells; [5]): > 300 µM
Oc1ccc(/C=N/NC(=S)Nc2ccc(Br)cc2)cc1 [Compound 47] | 67 ± 5.43 µM | 42.8 ± 12 µM | 52.4 µM | 

SMILES | CC50 at 72 h (L929 cells) | IC50 ([3]; Trypanosoma cruzi) | IC50 (Trichomonas vaginalis; Trichomonas vaginalis, 24 h) | also measured
COc1ccc(/C=N/NC(=S)Nc2ccc(Br)cc2)cc1 [Compound 48] | > 256 µM | > 256 µM | 55.1 µM | 
Oc1ccc(/C=N/NC(=S)Nc2ccc(Br)cc2)cc1O [Compound 49] | 16.7 ± 0.7 µM | 104 ± 15.7 µM | 11.1 µM | IC50 (Trichomonas vaginalis): 16.4 µM; CC50 at 24 h (Vero cells; [5]): ≥ 275 µM; CC50 (Vero cells): > 300 µM; unspecific cytotoxicity towards Vero cells (in words) (Vero cells): did not exhibit unspecific cytotoxicity
Oc1ccc(/C=N/NC(=S)Nc2ccc(I)cc2)cc1 [Compound 50] | 41.4 ± 8.36 µM | 22.8 ± 1.61 µM | 42.2 µM | CC50 at 24 h (Vero cells; [5]): > 300 µM
COc1ccc(/C=N/NC(=S)Nc2ccc(I)cc2)cc1 [Compound 51] | > 256 µM | > 256 µM | 14.8 µM | JC-1 fluorescence distribution in trophozoites (fluorescence microscopy) [4]: fluorescence restricted to certain regions of the parasite; IC50 (Trichomonas vaginalis): 14.8 µM; CC50 at 24 h (Vero cells; [5]): ≥ 275 µM; CC50 (Vero cells): > 300 µM; unspecific cytotoxicity towards Vero cells (in words) (Vero cells): did not exhibit unspecific cytotoxicity
Oc1ccc(/C=N/NC(=S)Nc2ccc(I)cc2)cc1O [Compound 52] | 20.8 ± 7.92 µM | 69.4 ± 4.73 µM | 24.9 µM | CC50 at 24 h (Vero cells; [5]): > 300 µM
O=[N+]([O-])c1ccccc1NC(=S)N/N=C/c1ccc(O)cc1 [Compound 53] | 34.9 ± 8.65 µM | 21.8 ± 2.98 µM | 92.8 µM | 
COc1ccc(/C=N/NC(=S)Nc2ccccc2[N+](=O)[O-])cc1 [Compound 54] | > 256 µM | 210 ± 14.5 µM | 34.2 µM | CC50 at 24 h (Vero cells; [5]): > 300 µM
O=[N+]([O-])c1ccccc1NC(=S)N/N=C/c1ccc(O)c(O)c1 [Compound 55] | 21.4 ± 4.12 µM | 42 ± 9.06 µM | 133 µM | 
O=[N+]([O-])c1cccc(NC(=S)N/N=C/c2ccc(O)cc2)c1 [Compound 56] | 28.8 ± 3.25 µM | 36.9 ± 3.84 µM | 24.3 µM | CC50 at 24 h (Vero cells; [5]): 169 µM
COc1ccc(/C=N/NC(=S)Nc2cccc([N+](=O)[O-])c2)cc1 [Compound 57] | > 256 µM | 23 ± 6.33 µM | 51.9 µM | IC50 ([1]; Trypanosoma cruzi): > 256 µM; CC50 at 48 h (J774 cells): > 256 µM; IC50 ([2]; Trypanosoma cruzi, 168 h): 22.3 ± 4.2 µM
O=[N+]([O-])c1cccc(NC(=S)N/N=C/c2ccc(O)c(O)c2)c1 [Compound 58] | 12 ± 1.42 µM | 33.8 ± 7.59 µM | 73.4 µM | 
O=[N+]([O-])c1ccc(NC(=S)N/N=C/c2ccc(O)cc2)cc1 [Compound 59] | 29.4 ± 2.52 µM | 76.4 ± 9.91 µM | 36 µM | CC50 at 24 h (Vero cells; [5]): 254 µM
COc1ccc(/C=N/NC(=S)Nc2ccc([N+](=O)[O-])cc2)cc1 [Compound 60] | > 256 µM | > 256 µM | 155 µM | 
O=[N+]([O-])c1ccc(NC(=S)N/N=C/c2ccc(O)c(O)c2)cc1 [Compound 61] | 5.37 ± 0.3 µM | 111 ± 14.8 µM | 128 µM | 
O=[N+]([O-])c1ccc(/C=N/NC(=S)Nc2ccc([N+](=O)[O-])cc2)cc1 [Compound 62] | 53.5 ± 4.82 µM | > 256 µM | 152 µM | 
Oc1ccc(/C=N/NC(=S)Nc2cccc3ccccc23)cc1 [Compound 63] |  |  |  | JC-1 fluorescence distribution in trophozoites (fluorescence microscopy) [4]: fluorescence restricted to certain regions of the parasite; IC50 (Trichomonas vaginalis): 14.9 µM; CC50 (Vero cells): 275 µM; CC50 (L929 cells): 31.1 ± 9.21 µM; IC50 [3]: 53.6 ± 11.3 µM
COc1ccc(/C=N/NC(=S)Nc2cccc3ccccc23)cc1 [Compound 64] |  |  |  | IC50 (Trichomonas vaginalis): 30.5 µM; CC50 (Vero cells): > 300 µM; CC50 (L929 cells): > 256 µM; IC50 [3]: > 256 µM
Oc1ccc(/C=N/NC(=S)Nc2cccc3ccccc23)cc1O [Compound 65] |  |  |  | IC50 (Trichomonas vaginalis): 20.1 µM; CC50 (Vero cells): 175 µM; CC50 (L929 cells): 28.8 ± 7.77 µM; IC50 [3]: 70.2 ± 6.99 µM
Oc1ccc(/C=N/NC(=[Se])Nc2ccc(Br)cc2)cc1O [Compound 74] |  |  | 11.1 µM | CC50 at 24 h (Vero cells): 114 µM
COc1ccc(/C=N/NC(=[Se])Nc2ccc(I)cc2)cc1 [Compound 75] |  |  | 11 µM | unspecific cytotoxicity towards Vero cells (in words) (Vero cells): did not present toxic effects at the maximum concentration tested
Cc1ncc([N+](=O)[O-])n1CCO [Metronidazole, metronidazole, reference compound] |  |  | 2.68 µM | JC-1 fluorescence distribution in trophozoites (fluorescence microscopy) [4]: fluorescence restricted to certain regions of the parasite; CC50 at 24 h (Vero cells; [5]): > 300 µM
